Experimental data: patent publication US8821891B2, “Live attenuated rotavirus vaccine for oral administration” (priority 2005, dated 2014)
Like-named read-outs stand apart in the source and are kept apart here.

Key:
[1] = standard acid-base titration curve, FIG. 1
[2] = cited from earlier work

| Structure (SMILES) | pKa (physchem) | useful antacid capacity between pH 4.0 and pH 7.0 [1] [%] | further results |
| --- | --- | --- | --- |
| O=C(O)CC(O)C(=O)O (centres unmarked) [Malic, malic acid] | 4.22 | – | – |
| O=C(O)/C=C\C(=O)O [Maleic, maleic acid] | 4.07 | – | – |
| CC(=O)[O-].[Na+] [sodium acetate] | – | 68.75 | – |
| CCC(=O)O [Propinic, propionic acid] | – | – | Toxicity (LD50 oral, in rat) ([2]; oral): 2600 mg/kg |
| O=C(O)CCCCC(=O)O [Adipic, adipic acid] | 4.91 | – | – |
| O=C([O-])CCCCC(=O)[O-].[Na+].[Na+] [sodium adipate] | – | 72.50 | – |
| O=C(O)CCCC(=O)O [Glutaric, glutaric acid] | 4.78 | – | – |
| O=C([O-])CC(O)C(=O)[O-].[Na+].[Na+] (centres unmarked) [sodium malate] | – | 41.25 | – |
| O=C([O-])CC(O)(CC(=O)[O-])C(=O)[O-].[Na+].[Na+].[Na+] [sodium citrate] | – | 57.70 | – |
| O=C(O)CCC(=O)O [Succinic, succinic acid] | 4.9 | – | Toxicity (LD50 oral, in rat) ([2]; in vivo, po): 2260 mg/kg |
